From article PMC5111430 (ACS chemical biology, 2016)

Key:
[1] = target: Recombinant human Hsp70 and DnaJA2 (Homo sapiens, UniProt P0DMV8); experiment: Hsp70 ATPase malachite green assay; type: biochemical; settings: 1 µM Hsp70, 1 µM DnaJA2, 1 mM ATP, 30 min preincubation, 3 h
HEK293T cells = experiment: LDH cytotoxicity assay; type: cell-based, human; settings: increasing concentrations, 24 h, relative to DMSO
WT4R0N tau = type: cell-based, human; settings: HEK293T, transient WT4R0N tau, 24 h; for effect on tau levels (tau aggregation inhibitor scaffolds): increasing concentrations; for effect on tau levels (Hsp70 inhibitor scaffolds): increasing concentrations up to 30 µM
[2] = target: 4R0N human recombinant tau (Homo sapiens, UniProt P10636, P618L); experiment: In vitro tau aggregation, thioflavin T fluorescence assay; type: biochemical; settings: for effect on tau aggregation levels in vitro: ThT fluorescence, heparin-induced, 24 h
human recombinant tau = human recombinant tau (Homo sapiens, UniProt P10636, P618L); experiment: Nondenaturing gel electrophoresis of ThT samples, high molecular weight tau; type: biochemical; settings: ThT samples incubated with 30 µM compound
[3] = target: recombinant human P301L tau (Homo sapiens, UniProt P10636, P618L); experiment: Hydrogen peroxide production assay; type: biochemical; settings: recombinant tau (10 µM) with 30 µM compound vs vehicle
Chain of recombinant human P301L tau (P10636 1-383 isoform P10636-6 P243L): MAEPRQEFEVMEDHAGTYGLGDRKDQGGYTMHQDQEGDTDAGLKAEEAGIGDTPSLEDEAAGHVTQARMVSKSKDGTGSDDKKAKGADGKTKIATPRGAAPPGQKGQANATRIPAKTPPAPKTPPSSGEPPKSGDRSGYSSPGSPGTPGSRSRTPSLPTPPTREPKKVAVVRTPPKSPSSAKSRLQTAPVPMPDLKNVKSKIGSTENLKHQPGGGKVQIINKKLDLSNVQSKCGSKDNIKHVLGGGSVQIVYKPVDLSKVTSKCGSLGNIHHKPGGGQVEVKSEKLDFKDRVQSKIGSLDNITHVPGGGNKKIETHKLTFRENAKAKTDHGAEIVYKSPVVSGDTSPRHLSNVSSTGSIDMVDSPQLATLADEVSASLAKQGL

Chain of 4R0N human recombinant tau (P10636 1-383 isoform P10636-6 P243L): as above
Chain of human recombinant tau (P10636 1-383 isoform P10636-6 P243L): as above
Chain of Recombinant human Hsp70 and DnaJA2 (P0DMV8 whole entry): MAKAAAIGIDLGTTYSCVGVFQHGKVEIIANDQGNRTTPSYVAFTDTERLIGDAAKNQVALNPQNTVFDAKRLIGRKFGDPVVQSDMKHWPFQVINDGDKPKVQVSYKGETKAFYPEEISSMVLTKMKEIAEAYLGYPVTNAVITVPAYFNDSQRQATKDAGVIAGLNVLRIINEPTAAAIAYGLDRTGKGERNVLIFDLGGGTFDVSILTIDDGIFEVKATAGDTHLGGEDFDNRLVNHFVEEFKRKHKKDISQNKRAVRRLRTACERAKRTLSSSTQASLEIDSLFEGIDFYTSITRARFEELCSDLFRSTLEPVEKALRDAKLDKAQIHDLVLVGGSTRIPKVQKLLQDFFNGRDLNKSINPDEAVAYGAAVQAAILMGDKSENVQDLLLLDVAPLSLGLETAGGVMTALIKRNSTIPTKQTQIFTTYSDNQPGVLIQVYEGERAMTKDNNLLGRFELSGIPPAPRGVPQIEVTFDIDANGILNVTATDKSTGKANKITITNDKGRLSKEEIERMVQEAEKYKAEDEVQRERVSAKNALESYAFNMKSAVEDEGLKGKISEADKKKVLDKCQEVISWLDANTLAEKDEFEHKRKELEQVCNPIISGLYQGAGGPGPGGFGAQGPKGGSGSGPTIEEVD

Molecule: 2-((Z)-5-((5-(3- chlorophenyl)furan -2-yl)methylene)-4-oxo-2- thioxothiazolidin-3- yl)ethanoic acid [rhodanine]
- Hsp70 ATPase activity [1]: inhibited Hsp70 ATPase activity

Molecule: 2-Phenylethynesulfonamide
- LDH cytotoxicity (HEK293T cells): high toxicity relative to the other compounds

Molecule: Nc1scc2c(C(=O)NC3CC3)nn(-c3ccc(Cl)cc3)c(=O)c12 [ATPZ, 5-amino-3-(4-chlorophenyl)-N-cyclopropyl-4-oxo-3,4-dihydrothieno[3,4-d]pyridazine-1-carboxamide]
- effect on tau levels (tau aggregation inhibitor scaffolds) (WT4R0N tau): did not lead to tau lowering

Molecule: N#Cc1ccc(COC[C@H]2O[C@@H](n3c(NCc4ccc(Cl)c(Cl)c4)nc4c(N)ncnc43)[C@H](O)[C@@H]2O)cc1 [adenosine analog, 5'-O-[(4-Cyanophenyl)methyl]-8-[[(3,4-dichlorophenyl)methyl]amino]-adenosine]
- effect on tau levels (Hsp70 inhibitor scaffolds) (WT4R0N tau): increased tau levels
- effect on tau aggregation levels in vitro [2]: increased tau aggregation levels

Molecule: O=C1c2ccc(O)c(O)c2C(=O)c2c(O)ccc(O)c21 [anthraquinone, 1,2,5,8-Tetrahydroxy-9,10-anthraquinone, 1,2,5,8-Tetrahydroxyanthraquinone]
- effect on tau levels at 30 µM (WT4R0N tau; 30 µM): effectively lowered tau levels
- effect on tau levels (tau aggregation inhibitor scaffolds) (WT4R0N tau): lowered tau levels

Molecule: CC1=C(C(=O)OCc2ccccc2)C(c2ccc(-c3ccccc3)cc2)NC(=O)N1CCCCCC(=O)O (centres unmarked) [dihydropyrimidine, 4-[1,1'-Biphenyl]-4-yl-3,4-dihydro-6-methyl-2-oxo-5-[(phenylmethoxy)carbonyl]-1(2H)-pyrimidinehexanoic acid]
- IC50 [2]: 22.7 µM

Molecule: CN(C)c1ccc2nc3ccc(N(C)C)cc3[s+]c2c1.[Cl-] [phenothiazine, 3,7-bis(Dimethylamino)phenazat hionium chloride]
- effect on high molecular weight tau (human recombinant tau): most potently reduced high molecular weight tau

Molecule: CCCn1c(NC(=O)[C@H]2CCCN(c3cnccn3)C2)nc2ccccc21 [piperidine-3-carboxamide, (S)-N-(1-propyl-1H-benzimidazol-2-yl)-1-(2-pyrazinyl)piperidine-3-carboxamide]
- effect on tau levels (Hsp70 inhibitor scaffolds) (WT4R0N tau): increased tau levels
- effect on tau aggregation levels in vitro [2]: increased tau aggregation levels

Molecule: CCn1c(=O)/c(=C2\Sc3cc(Cl)ccc3N2C)s/c1=C\c1scc[n+]1Cc1ccccc1.[Cl-] [rhodacyanine, 3-benzyl-2-((Z)-((E)-5-(6-chloro-3-methylbenzo[d]thiazol-2(3H)-ylidene)-3-ethyl-4-oxothiazolidin-2-ylidene)methyl)thiazol-3-ium chloride]
- production of hydrogen peroxide [3]: no significant differences
- effect on high molecular weight tau (human recombinant tau): most potently reduced high molecular weight tau
- IC50 [2]: 0.813 µM
